{
  "source": "patent US20030186888A1",
  "about": "“Diastereo analog of peptide SPFK-amide with selective anti-microbial activity and a method thereof” (priority 2002, published 2003)",
  "assay_type_in_all_cases": "cell-based",
  "key": {"microorganisms tested": {"test_system": "microorganisms tested", "experiment": "Antimicrobial activity (growth inhibition, MIC)", "conditions": "growth of the microorganisms tested", "procedure": "(§1) In further embodiment of the present invention, for determining antimicrobial activity, antimicrobial activity was assayed as follows: Different concentrations of peptides were added to 1 ml of synthetic medium [KH2PO4, 10.5 g; K2HPC>4, 4.5 g; (NH4)2SO4, 1 g; MgSO4, 0.1 g; L-arginine, 0.1 g and glucose 1% for one litre of medium] for E. coli or nutrient broth for other microorganisms, containing an inocula of the test organism adjusted to ˜10^6 CFU/ml. Microbial growth was determined by monitoring the increase in ODeoo after incubating under aerobic conditions at 37° C. for 6-8 h (30° C. for P. aeruginosa). The bactericidal activity of the peptides was determined by plating suitably diluted cultures after incubation with the peptides on nutrient agar plates. The plates were incubated at 37° C. for 18 h for colony counting. Outer membrane permeabilization assays were done by fluorescent monitoring of uptake of N-phenyl-1-N-naphthyl amine (NPN) (26). […] The excitation monochromator was set at 350 nm and emission at 420 nm was continuously monitored after addition of the peptide from an aqueous stock solution. […] Inner membrane permeability of E. coli W 160.37 was monitored by measuring the p-galactosidase activity in preinduced cells (with 5×10′^4 M IPTG), in the presence of different concentration of the peptide using 0-nitro phenyl-3-D-galactoside (ONPG)(27)."}, "E. coli": {"test_system": "E. coli", "experiment": "Bactericidal activity by plating and colony counting", "conditions": "on E. coli", "procedure": "as §1"}, "rat erythrocytes": {"test_system": "rat erythrocytes", "procedure": "In further embodiment of the present invention, hemolytic activity of the peptides was assessed on freshly isolated rat erythrocytes. Heparinized rat blood in saline was initially centrifuged at 1000×g for 10 min to remove the buffy coat. The erythrocyte suspension was further washed thrice with 5 mM Hepes, pH 7.4 containing 150 mM NaCl. Aliquots of cell suspension ( 10^6 cells) in eppendorf tubes were incubated with the peptide in […]° C. for 30 min with gentle mixing. The tubes were then centrifuged and the absorbance of the supernatants was measured at 540 nm. The lysis obtained with 1% triton X 100 was taken as 100%. FIG. 5. Hemolysis of rat erythrocytes as a function of peptide concentration concentration Erythrocytes (-10^6/ml) were incubated in Hepes buffered isotonic saline containing various concentrations of SPFK analogs. SPFK (A). Other symbols same as that in FIG. 1."}},
  "note": "Entries after “also recorded” stand apart in the source; their conditions may differ. Square brackets hold non-standard residues; d marks the D form. Peptide text beside a SMILES is read from it.",
  "data": [
    {"smiles": "CC[C@H](C)[C@H](NC(=O)[C@H](Cc1c[nH]c2ccccc12)NC(=O)[C@H](CCCCN)NC(=O)[C@H](CO)NC(=O)[C@@H](CC(C)C)NC(=O)[C@H](Cc1ccccc1)NC(=O)[C@@H](NC(=O)[C@H](CCCCN)NC(=O)[C@@H](CC(C)C)NC(=O)[C@H](CC(C)C)NC(=O)[C@H](CCCCN)NC(=O)[C@@H]1CCCN1)[C@@H](C)O)C(=O)NCC(N)=O", "note": "[DSam] (H-PKL[dL]KTF[dL]SKWIG-NH2; N-terminus assumed)", "values": [
      {"measurement": "antimicrobial activity / MIC (in words)", "setting": "microorganisms tested", "result": "exhibits activity with MIC's comparable to that of SPFK and its retro isomers; also recorded: MICs comparable to that of SPFK and the retro analogs"},
      {"measurement": "bactericidal concentration", "setting": "E. coli", "result": "> 50", "unit": "µg/mL"},
      {"measurement": "bacteriostatic concentration", "setting": "E. coli", "result": 30, "unit": "µg/L"}
    ]},
    {"smiles": "CC[C@H](C)[C@H](NC(=O)[C@H](Cc1c[nH]c2ccccc12)NC(=O)[C@H](CCCCN)NC(=O)[C@H](CO)NC(=O)[C@@H](CC(C)C)NC(=O)[C@H](Cc1ccccc1)NC(=O)[C@@H](NC(=O)[C@H](CCCCN)NC(=O)[C@@H](CC(C)C)NC(=O)[C@H](CC(C)C)NC(=O)[C@H](CCCCN)NC(=O)[C@@H]1CCCN1)[C@@H](C)O)C(=O)NCC(=O)O", "note": "[DSac] (H-PKL[dL]KTF[dL]SKWIG-OH)", "values": [
      {"measurement": "hemolytic activity (in words)", "setting": "rat erythrocytes", "result": "very little hemolytic activity"}
    ]}
  ]
}
